Measured values reported in PubChem BioAssay (NCI).
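Cultured in 96-well plates, cells were exposed to test compound for 48 hours across five concentrations. GI50 is the concentration that inhibits growth by half. TGI denotes the concentration required for complete inhibition of growth.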

Experiments:
Experiment in all cases: NCI anticancer screen, dose series, 48 h
786-0 renal = tested on: 786-0 renal
A498 renal = tested on: A498 renal
A549 NSCLC = tested on: A549 NSCLC
ACHN renal = tested on: ACHN renal
BT-549 breast = tested on: BT-549 breast
CAKI-1 renal = tested on: CAKI-1 renal
CCRF-CEM leukemia = tested on: CCRF-CEM leukemia
COLO 205 colon = tested on: COLO 205 colon
DU-145 prostate = tested on: DU-145 prostate
EKVX NSCLC = tested on: EKVX NSCLC
HCC-2998 colon = tested on: HCC-2998 colon
HCT-116 colon = tested on: HCT-116 colon
HCT-15 colon = tested on: HCT-15 colon
HL-60(TB) leukemia = tested on: HL-60(TB) leukemia
HOP-62 NSCLC = tested on: HOP-62 NSCLC
HOP-92 NSCLC = tested on: HOP-92 NSCLC
HT29 colon = tested on: HT29 colon
IGROV1 ovarian = tested on: IGROV1 ovarian
K-562 leukemia = tested on: K-562 leukemia
KM12 colon = tested on: KM12 colon
M14 melanoma = tested on: M14 melanoma
MALME-3M melanoma = tested on: MALME-3M melanoma
MCF7 breast = tested on: MCF7 breast
MDA-MB-435 = tested on: MDA-MB-435
MDA-MB-468 breast = tested on: MDA-MB-468 breast
MOLT-4 leukemia = tested on: MOLT-4 leukemia
NCI-H226 lung = tested on: NCI-H226 lung
NCI-H23 lung = tested on: NCI-H23 lung

With `C=C1CC[C@@H]2[C@]3(C)COC(c4cn[nH]c4-c4ccc(F)cc4)O[C@@H]3CC[C@@]2(C)[C@@H]1C/C=C1/C(=O)OCC1O` (stereo not given in full) the GI50 (786-0 renal) was 16.6 µM, the TGI (786-0 renal) was 30.2 µM and the GI50 (A498 renal) was 17 µM. The TGI (A498 renal) was 30.7 µM, the GI50 (A549 NSCLC) was 21.4 µM and the TGI (A549 NSCLC) was 62.2 µM. It also gave a GI50 (ACHN renal) of 15.1 µM, a TGI (ACHN renal) of 28.4 µM and a GI50 (BT-549 breast) of 13.4 µM. The TGI (BT-549 breast) was 27.5 µM, the GI50 (CAKI-1 renal) was 21.5 µM and the TGI (CAKI-1 renal) was 50 µM. For the same molecule, the GI50 (CCRF-CEM leukemia) was 4.6 µM, the TGI (CCRF-CEM leukemia) was 38.5 µM and the GI50 (COLO 205 colon) was 18.2 µM. The TGI (COLO 205 colon) was 35 µM, the GI50 (DU-145 prostate) was 19.6 µM and the TGI (DU-145 prostate) was 43.5 µM. For the same molecule, the GI50 (EKVX NSCLC) was 13.5 µM, the TGI (EKVX NSCLC) was 26.3 µM and the GI50 (HCC-2998 colon) was 16.3 µM. It also gave a TGI (HCC-2998 colon) of 29.8 µM, a GI50 (HCT-116 colon) of 14.9 µM and a TGI (HCT-116 colon) of 28.1 µM. It also gave a GI50 (HCT-15 colon) of 14.9 µM, a TGI (HCT-15 colon) of 30.5 µM and a GI50 (HL-60(TB) leukemia) of 12.8 µM. The TGI (HL-60(TB) leukemia) was 40.2 µM, the GI50 (HOP-62 NSCLC) was 18.1 µM and the TGI (HOP-62 NSCLC) was 34.4 µM. It also gave a GI50 (HOP-92 NSCLC) of 14.7 µM, a TGI (HOP-92 NSCLC) of 34.9 µM and a GI50 (HT29 colon) of 16.4 µM. The TGI (HT29 colon) was 30.2 µM, the GI50 (IGROV1 ovarian) was 16.4 µM and the TGI (IGROV1 ovarian) was 30.6 µM. It also gave a GI50 (K-562 leukemia) of 13.1 µM, a TGI (K-562 leukemia) of 49.6 µM and a GI50 (KM12 colon) of 22.5 µM. For the same molecule, the TGI (KM12 colon) was 57 µM, the GI50 (M14 melanoma) was 16.5 µM and the TGI (M14 melanoma) was 34.1 µM. For the same molecule, the GI50 (MALME-3M melanoma) was 16 µM, the TGI (MALME-3M melanoma) was 30 µM and the GI50 (MCF7 breast) was 7.52 µM. For the same molecule, the TGI (MCF7 breast) was 22 µM, the GI50 (MDA-MB-435) was 20.8 µM and the TGI (MDA-MB-435) was 52.9 µM. The GI50 (MDA-MB-468 breast) was 11.9 µM, the TGI (MDA-MB-468 breast) was 24.6 µM and the GI50 (MOLT-4 leukemia) was 20.2 µM. For the same molecule, the TGI (MOLT-4 leukemia) was 77.4 µM, the GI50 (NCI-H226 lung) was 13.1 µM and the TGI (NCI-H226 lung) was 27.6 µM. For the same molecule, the GI50 (NCI-H23 lung) was 15.6 µM.
